# Reference: patent publication US6569622B1, “Nucleic acids encoding a protein conferring an inducible resistance to glycopeptide, particularly in gram-positive bacteria” (Institut Pasteur, priority 1992, dated 2003)
# Experiments:
# Test in all cases: MIC determination on agar (method of Steers et al.)
# E. faecalis = assay type: cell-based, Enterococcus faecalis
# Protocol: (§1) A brain-heart medium and agar (Difco Laboratories, Detroit, Mich.) were used. Sensitivity tests were performed on Mueller-Hinton agar (Diagnostics Pasteur, Marne LaCoquette, France). All of the incubations were performed at 37° C.
# (§2) The disk diffusion test with disks containing 30 μg of vancomycin or 30 μg of teicoplanin (Diagnostics Pasteur) was used for the initial screening. The method of Steers et al. with 10^4 CFU per spot was used to determine the MIC of the antibiotics (Steers E. et al., Antibiot. Chemother. (Basel) 1959, 9: 307-11)
# E. faecium = assay type: cell-based, Enterococcus faecium
# Protocol: as §1, §2
# E. casseliflavus = assay type: cell-based
# Protocol: as §1, §2
# E. gallinarum = assay type: cell-based
# Protocol: as §1, §2
# [1] = system: Enterococcus spp. (susceptible); assay type: cell-based
# Protocol: as §1, §2
# Lactobacillus spp. = assay type: cell-based
# Protocol: as §1, §2
# Pediococcus spp. = assay type: cell-based
# Protocol: as §1, §2
# Leuconostoc. sp. = assay type: cell-based, Leuconostoc mesenteroides
# Protocol: as §1, §2
# E. rhusiopathiae = assay type: cell-based, Erysipelothrix rhusiopathiae
# Protocol: as §1, §2
# [2] = system: isolates of E. faecium and E. faecalis resistant to high concentrations of vancomycin; assay type: cell-based; details: 15 isolates resistant to high concentrations of vancomycin, including V583-2 and UMH-1
# Source text: Bacterial strains: 39 isolates of E. faecium (28 strains) and E. faecalis (11 strains) resistant to low and high concentrations of vancomycin and sensitive to teicoplanin were studied (Table II). Among these strains 24 isolates including E. faecalis V583 (Sahm D. et al., Antimicrob. Agents Chemother. 1989, 33: 1588-91) and E. faecium D366 (Gutmnann L. et al., Antimicrob. Agents Chemother. 1992, 36: 77-80) were resistant to low concentrations of vancomycin on the basis of a disk sensitivity test. […] The control strains were well-characterized strains of entercocci belonging to the phenotypes A and C and hybridizing with the probes VanA and VanC, respectively. In particular there are 6 clinical isolates of E. faecium highly resistant to vancomycin and to teicoplanin, including BM4147. The strains of E. gallinarum including […] belonging to class C were also used as controls. Strains of E. casseliflavus are also used as controls, including the strain ATCC 25788, which are isolates intrinsically resistant to low levels of vancomycin and sensitive to teicoplanin (Leclercq R. et al., Antimicrob. Agents Chemother. 1992, 36: 2005-8).
# A brain-heart medium and agar (Difco Laboratories, Detroit, Mich.) were used. Sensitivity tests were performed on Mueller-Hinton agar (Diagnostics Pasteur, Marne LaCoquette, France). All of the incubations were performed at 37° C. […]
# [3] = E. gallinarum(3), phenotypic class C, genotypic class C
compound,measurement,setting,value
"CN[C@H](CC(C)C)C(=O)N[C@H]1C(=O)N[C@@H](CC(N)=O)C(=O)N[C@H]2C(=O)N[C@H]3C(=O)N[C@H](C(=O)N[C@H](C(=O)O)c4cc(O)cc(O)c4-c4cc3ccc4O)[C@H](O)c3ccc(c(Cl)c3)Oc3cc2cc(c3O[C@@H]2O[C@H](CO)[C@@H](O)[C@H](O)[C@H]2O[C@H]2C[C@](C)(N)[C@H](O)[C@H](C)O2)Oc2ccc(cc2Cl)[C@H]1O [Vancomycin, vancomycin]",MIC,"E. faecalis; Enterococcus faecalis, ATCC29212, E. faecalis strain ATCC 29212",2 µg/mL
same,MIC,"E. faecalis; Enterococcus faecalis, E. faecalis strain UMH-1",1020 µg/mL
same,MIC,"E. faecalis; Enterococcus faecalis, E. faecalis strain V583",64 µg/mL
same,MIC,"E. faecalis; Enterococcus faecalis, E. faecalis strain V583-2",1020 µg/mL
same,MIC,"E. faecalis; Enterococcus faecalis, E. faecalis strain V583-C1",2 µg/mL
same,MIC,"E. faecalis; Enterococcus faecalis, E. faecalis(11), phenotypic class B, genotypic class B",4 to 1020 µg/mL
same,MIC,"E. faecium; Enterococcus faecium, ATCC19434, E. faecium strain ATCC 19434",1 µg/mL
same,MIC,"E. faecium; Enterococcus faecium, E. faecium strain BM4147",1020 µg/mL
same,MIC,"E. faecium; Enterococcus faecium, E. faecium strain D366",32 µg/mL
same,MIC,"E. faecium; Enterococcus faecium, E. faecium strain MT10R",2 µg/mL
same,MIC,"E. faecium; Enterococcus faecium, E. faecium(28), phenotypic class B, genotypic class B",4 to 256 µg/mL
same,MIC,"E. casseliflavus; Enterococcus casseliflavus, E. casseliflavus (Table I, strain not given)",8 µg/mL
same,MIC,"E. casseliflavus; Enterococcus casseliflavus, E. casseliflavus(2), phenotypic class C, genotype NC",4 to 8 µg/mL
same,MIC,E. gallinarum; [3],8 µg/mL
same,MIC,"E. gallinarum; Enterococcus gallinarum, GALLINARUM",8 µg/mL
same,MIC,[1]; Enterococcus,0.5 to 2 µg/mL
same,MIC,Lactobacillus spp.; Lactobacillus,> 1 µg/mL
same,MIC,Pediococcus spp.; Pediococcus,> 1 µg/mL
same,MIC,Leuconostoc. sp.; Leuconostoc mesenteroides,> 1 µg/mL
same,MIC,E. rhusiopathiae; Erysipelothrix rhusiopathiae,> 1 µg/mL
same,MIC,[2],≥ 128 µg/mL
teicoplanin,MIC,E. faecalis; E. faecalis strain ATCC 29212,0.5 µg/mL
same,MIC,E. faecalis; E. faecalis strain UMH-1,1.0 µg/mL
same,MIC,E. faecalis; E. faecalis strain V583,0.5 µg/mL
same,MIC,E. faecalis; E. faecalis strain V583-2,1.0 µg/mL
same,MIC,E. faecalis; E. faecalis strain V583-C1,0.5 µg/mL
same,MIC,"E. faecalis; E. faecalis(11), phenotypic class B, genotypic class B",0.5 to 1 µg/mL
same,MIC,E. faecium; E. faecium strain ATCC 19434,1 µg/mL
same,MIC,E. faecium; E. faecium strain BM4147,512 µg/mL
same,MIC,E. faecium; E. faecium strain D366,0.5 µg/mL
same,MIC,E. faecium; E. faecium strain MT10R,0.25 µg/mL
same,MIC,"E. faecium; E. faecium(28), phenotypic class B, genotypic class B",0.5 to 1 µg/mL
same,MIC,"E. casseliflavus; E. casseliflavus (Table I, strain not given)",1 µg/mL
same,MIC,"E. casseliflavus; E. casseliflavus(2), phenotypic class C, genotype NC",0.5 to 1 µg/mL
same,MIC,E. gallinarum; E. gallinarum strain BM4174,1 µg/mL
same,MIC,E. gallinarum; [3],1 µg/mL
same,MIC,"[1]; Enterococcus spp.(10), phenotypic class Susceptible",0.25 µg/mL
same,MIC,Lactobacillus spp.; Lactobacillus spp.(8),>1.000 µg/mL
same,MIC,Pediococcus spp.; Pediococcus spp.(2),>1.000 µg/mL
same,MIC,Leuconostoc. sp.; Leuconostoc. sp.(1),>1.000 µg/mL
same,MIC,E. rhusiopathiae; E. rhusiopathiae(1),>1.000 µg/mL
